# Results from patent US4062934A, “X-ray contrast media” (Laboratoires Andre Guerbet, priority 1975, dated 1977).
# Legend:
# [1] = Neurotoxicity, intra-cisternal injection in rats (technique according to E. Melartin); settings: in vivo, at 50 mg I/rat, read-out: Neurotoxicity: death rate, intra-cisternal injection in rats
# Text: *Technique according to E. Melartin (Investigative Radiology, 1970, 5, 1,
# [2] = Viscosity of aqueous solution; assay type: physicochemical; settings: 25 g iodine per 100 ml, 37° C
# Experimental: The product is dissolved in water at a concentration of 25 g iodine per 100 ml. The solution has a viscosity of 7.4 centipoises at 37° C.
# [3] = system: mice; test: LD50, I.V., in mice; assay type: in vivo; settings: aqueous solution containing 28% iodine
# [4] = Osmolality of aqueous solutions containing 28% iodine; assay type: physicochemical; settings: aqueous solution
# [5] = Neurotoxicity, intra-cerebral injection in mice (technique according to Haley and MacCornick); settings: mouse, in vivo, 700 mg/kg, at 700 mg I/kg, read-out: Neurotoxicity: death rate, intra-cerebral injection in mice
# Text: **Technique according to Haley and MacCornick (British Journal
SMILES,mortality [1] [%],viscosity [2] [centipoises],"LD50, I.V., in mice [3] [g I/kg]",Osmolality [4] [mosm/kg],mortality [5] [%]
"CC(=O)N(C)c1c(I)c(NC(=O)[C@H](O)[C@@H](O)[C@H](O)[C@H](O)CO)c(I)c(C(=O)NCCNC(=O)c2c(I)c(NC(=O)[C@H](O)[C@@H](O)[C@H](O)[C@H](O)CO)c(I)c(N(C)C(C)=O)c2I)c1I [I, 1,2-N,N'-bis(2,4,6-triiodo-3-N-methyl-N-acetylamino-5-N-gluconylamino-benzoyl)-diamino-ethane]",0,7.4,15,200,0
"CC(=O)N(C)c1c(I)c(NC(=O)[C@H](O)[C@@H](O)[C@H](O)[C@H](O)CO)c(I)c(C(=O)NNC(=O)c2c(I)c(NC(=O)[C@H](O)[C@@H](O)[C@H](O)[C@H](O)CO)c(I)c(N(C)C(C)=O)c2I)c1I [II, N,N'-bis(2,4,6-triiodo-3-N-methyl-N-acetylamino-5-N-gluconylamino-benzoyl)hydrazide]",–,–,6,204,–
"CC(=O)N(C)c1c(I)c(NC(=O)[C@H](O)[C@@H](O)[C@H](O)[C@H](O)CO)c(I)c(C(=O)N(C)N(C)C(=O)c2c(I)c(NC(=O)[C@H](O)[C@@H](O)[C@H](O)[C@H](O)CO)c(I)c(N(C)C(C)=O)c2I)c1I [III, N,N'-bis(2,4,6-triiodo-3-N-methyl-N-acetylamino-5-N-gluconylamino-benzoyl)dimethyl hydrazide]",–,–,9,140,–
